Measured values as given in US11254706B2, “Peptide and its derivatives capable of inhibiting replication of hepatitis V virus in human adipose-derived stem cells and hepatocytes” (Inno Bio-Drug Development Limited, priority 2015, dated 2022).
Ends that are not written are not given here.

Assays:
[1] = system: serum-borne HCV (genotype 1b); assay: Replication of serum-borne HCV in hADSC (qRT-PCR of 5′-UTR); type: cell-based; settings: p5 hADSC, peptide 1, 10 and 100 μg/ml (control peptide 100 μg/ml) added 1 h before HCV(+) serum genotype 1b, day 21 post-infection; for viral (5′-UTR) copy numbers in the supernatant: FIG. 1A; for viral (5′-UTR) copy numbers in cell lysates: FIG. 1B
Excerpt: FIG. 1. […] Data are expressed as mean±SD from 3 experiments. […] Data are expressed as mean±SD from 3 experiments.
We next examined the effect of a peptide composed of 14 amino acids DEAQETAVSSHEQD (SEQ ID NO: 1) (designated as DEA), and its derivatives QETAVSSHEQD (SEQ ID NO: 3) (designated as QET) and DEAQETAVSSHEQ (SEQ ID NO: 2) (designated DEA-Q) as prepared in Example 1, in the replication of serum-borne HCV in hADSC and in human primary hepatocytes. […] (SEQ ID NO: 4)^10. […] In contrast, pretreatment with control peptide had no effects.

[2] = system: HCVser (genotype 1b); settings: for HCV copy numbers: at some concentrations (such as 10 and 100 μg/ml); for HCVser replication in human hepatocytes (cellular 5′-UTR RNA): pretreatment 1 h before HCVser-1b, five days post-infection, FIG. 1C
Procedure: FIG. 1. […] (A and B) Concentrations of 1, 10 and 100 μg/ml of DEA, DEA-Q and QET peptides were added into the culture of p5 hADSC for 1 h before exposure to HCV(+) serum (genotype 1b). HLA-A11 restricted, Epstein-Barr virus-specific peptide epitope […] was used as a control (irrelevant) peptide. On day 21 post-infection, the 5′-UTR copy numbers in the supernatant (A) and cell lysates (B) were quantified by qRT-PCR. Data are expressed as mean±SD from 3 experiments. (C) Concentrations of 1, 10 and 100 μg/ml of DEA, DEA-Q and QET peptides were added into the culture of primary human hepatocytes 1 h before exposure to HCVser (genotype 1b). Five days post-infection, the cellular RNAs were extracted for RT-PCR of 5′-UTR. Data are expressed as mean±SD from 3 experiments.
Human hepatocytes were isolated from the non-tumoural part away from the lesion, as described^11. Hepatocytes were left for 3 days to allow attachment onto plastic wells, and subsequently exposed to the HCVser-1b with or without pretreatment with control peptide, DEA, DEA-Q or QET peptide. Five days post-infection, the cellular RNAs were extracted for RT-PCR of 5′-UTR.

Substance | viral (5′-UTR) copy numbers in the supernatant [1] | viral (5′-UTR) copy numbers in cell lysates [1] | HCV copy numbers [2] | HCVser replication in human hepatocytes (cellular 5′-UTR RNA) [2]
CSSCSSCPLSK (HLA-A11 restricted, Epstein-Barr virus-specific peptide epitope) [control peptide, reference compound] | no effects | no effects | – | –
DEAQETAVSSHEQ-OH [DEA-Q, DEAQETAVSSHEQ] | significantly reduced | significantly reduced | under detection limit | significantly inhibited
DEAQETAVSSHEQD-OH [DEA, DEAQETAVSSHEQD] | significantly reduced | significantly reduced | under detection limit | significantly inhibited
QETAVSSHEQD-OH [QET, QETAVSSHEQD] | significantly reduced | significantly reduced | under detection limit | significantly inhibited
